Measured values as given in US20230310473A1, “METHOD FOR TREATING OBESITY AND/OR HYPERTENSION” (THE ROYAL INSTITUTION FOR THE ADVANCEMENT OF …, priority 2022, published 2023).

Key:
[1] = test system: inflammation, oxidative stress and endoplasmic reticulum stress markers in thoracic aorta; assay: Western blot and mRNA markers in thoracic aorta of angiotensin II hypertensive mice; type: in vivo
Excerpt: FIG. 8H is a western blot of IP3R1,p-Protein kinase-like endoplasmic reticulum kinase (PERK), t-PERK, P-eNOS, T-eNOS, BIP, NOX1, TNFα, P65, cytochrome c and GAPDH, in thoracic aorta for control mice administered vehicle (CTL), EXP mice administered angiotensin II and levan (A+L), and mice administered angiotensin II without levan (ANG).

[2] = Systolic blood pressure in angiotensin II hypertensive mice; type: in vivo; conditions: mice with hypertension (angiotensin II); vs angiotensin II without levan
Excerpt: FIG. 8A is a graph showing the systolic blood pressure (BP) in function of time for control mice administered vehicle (1), EXP mice administered angiotensin II and levan (2) and mice administered angiotensin II without levan (3).

thoracic aorta = assay: Vascular reactivity (wire myograph) of thoracic aorta from HFD obese mice; type: in vivo
Excerpt: FIG. 3A a graph showing the original traces for the harvesting of the thoracic aorta from mice C, HFD and EXP, and exposing the aortas to acetylcholine (Ach) in vitro using the wire myograph (cumulative doses of Ach after precontraction to phenylephrine).
FIG. 3B is a graph of the aorta relaxation percentage in function of the logarithm of the concentration of acetylcholine (endothelium dependent relaxation to Ach) for control mice (1), EXP mice (2) and HFD mice (3).
FIG. 3C is a graph of the aorta relaxation percentage in function of the logarithm of the concentration of sodium nitroprusside (SNP) (endothelium independent relaxation to SNP) for control mice (1), EXP mice (2) and HFD mice (3).
(§1) Eight-week-old C57/b6 male mice (stock number 000664, Jackson Labs) were fed with a high fat diet (HFD) for 12 weeks in the presence and absence of levan having β-[2,6]-glycosidic linkages. More specifically, the mice were fed either standard diet (SD; 5.8% fat, 44.3% carbohydrate, 19.1% protein) or high fat (HFD; 60% fat, 20% carbohydrate, 20% protein) diet for 12 weeks. Levan having β-[2,6]-glycosidic linkages was administered by gavage (250 mg/Kg) for the last 4 weeks of HFD feeding for a subgroup of mice, the experimental group. Bodyweight, blood glucose, body composition, and lipid profile were determined. Vascular function and endothelial function markers were studied in aorta and mesenteric resistance arteries (MRA). Furthermore, body weight was measured weekly, lean and fat mass were measured by EchoMRl, blood glucose and lipid plasma levels were measured, and the thoracic aorta and mesenteric resistance arteries (MRA) were harvested and used for western blot, quantitative real time (qRT-) PCR and vascular reactivity using the wire myograph.

[3] = test system: inflammation, oxidative stress and ER stress markers in proximal colon; assay: mRNA markers in proximal colon of angiotensin II hypertensive mice; type: in vivo
Excerpt: FIG. 9K is a heat map showing the markers in proximal colon from normotensive mice and hypertensive mice treated with and without low levan β-[2,6]-glycosidic linkages treatment.

[4] = test system: mesenteric resistance arteries (MRA); assay: Vascular reactivity (wire myograph) of mesenteric resistance arteries from HFD obese mice; type: in vivo
Excerpt: FIG. 4B is a graph of the mesenteric relaxation percentage in function of the logarithm of the concentration of acetylcholine (endothelium dependent relaxation to Ach) for control mice (1), EXP mice (2) and HFD mice (3).
FIG. 4C is a graph of the mesenteric relaxation percentage in function of the logarithm of the concentration of sodium nitroprusside (SNP) (endothelium independent relaxation to SNP) for control mice (1), EXP mice (2) and HFD mice (3).
as §1

[5] = High fat diet (HFD) obesity mouse model: body weight, body composition, blood glucose, lipid profile; type: in vivo, mice; conditions: for body weight: HFD-fed C57/b6 male mice, levan 250 mg/Kg by gavage, last 4 weeks of 12 weeks HFD
Experimental: as §1
Results, reported as means ± standard error (SE), were analyzed using GraphPad Prism 9 (GraphPad Software, San Diego, CA). T-tests and one-way ANOVA were used to compare certain paired parameters. Unless specified otherwise, the values for p are *p<0.05; **p<0.01; ***p<0.001; and ****p<0.0001.

[6] = Liver function (ALT, ALP) in angiotensin II hypertensive mice; type: in vivo
Excerpt: FIG. 11A is a graph showing the level of Alanine Aminotransferase/SGPT (ALT) in control mice administered vehicle, EXP mice administered angiotensin II and levan, and mice administered angiotensin II without levan.
FIG. 11B is a graph showing the level of alkaline phosphatase (ALP) in control mice administered vehicle, EXP mice administered angiotensin II and levan, and mice administered angiotensin II without levan.

[7] = test system: inflammation, oxidative stress and endoplasmic reticulum stress markers in mesenteric arteries; assay: Western blot markers in mesenteric arteries of HFD obese mice; type: in vivo
Excerpt: FIG. 4D is a western blot of P-eNOS, T-eNOS, BIP, CHOP, TNFα, P65 and GAPDH, in mesenteric arteries for the control mice, the HFD mice and the EXP mice.
as §1

aorta = assay: Vascular contraction and relaxation of aorta from angiotensin II hypertensive mice; type: in vivo
Excerpt: FIG. 8C is a graph showing the aorta contraction percentage in response to the log of phenylephrine (PE) concentration for control mice administered vehicle (1), EXP mice administered angiotensin II and levan (2) and mice administered angiotensin II without levan (3).
FIG. 8D is a graph showing the aorta contraction percentage in response to the log of thromboxane A analog (TXA) concentration for control mice administered vehicle (1), EXP mice administered angiotensin II and levan (2) and mice administered angiotensin II without levan (3).
FIG. 8E is a graph showing the aorta contraction percentage in response to the log of angiotensin II (Ang II) concentration for control mice administered vehicle (1), EXP mice administered angiotensin II and levan (2) and mice administered angiotensin II without levan (3).
FIG. 8F is a graph showing the aorta relaxation percentage in function of the logarithm of the concentration of acetylcholine (endothelium dependent relaxation to Ach) for control mice administered vehicle (1), EXP mice administered angiotensin II and levan (2) and mice administered angiotensin II without levan (3).
FIG. 8G is a graph of the aorta relaxation percentage in function of the logarithm of the concentration of sodium nitroprusside (SNP) (endothelium independent relaxation to SNP) for control mice administered vehicle (1), EXP mice administered angiotensin II and levan (2) and mice administered angiotensin II without levan (3).

[8] = test system: inflammation, oxidative stress and ER stress markers in distal colon; assay: mRNA markers in distal colon of angiotensin II hypertensive mice; type: in vivo
Excerpt: FIG. 10K is a heat map showing the markers in distal colon from normotensive mice and hypertensive mice treated with and without low levan β-[2,6]-glycosidic linkages treatment.

[9] = test system: inflammation, oxidative stress and ER stress markers in proximal colon; assay: mRNA markers in proximal colon of HFD obese mice; type: in vivo
Excerpt: FIG. 5L is a heat map showing all the markers in proximal colon from control mice and mice fed with HFD in the presence and absence of low levan β-[2,6]-glycosidic linkages treatment.
as §1

[10] = test system: inflammation, oxidative stress and endoplasmic reticulum stress markers in thoracic aorta; assay: Western blot and qRT-PCR markers in thoracic aorta of HFD obese mice; type: in vivo
Excerpt: FIG. 3D is a western blot of phospho-endothelial nitric oxide synthase (P-eNOS), […] endothelial nitric oxide synthase (T-eNOS), binding protein (BIP), C/EBP homologous protein (CHOP), tumor necrosis factor alpha (TNFα), P65 and glyceraldehyde-3-phosphate dehydrogenase (GAPDH), for the control mice, the HFD mice and the EXP mice.
FIG. 3W is a heat map showing all the markers in thoracic aorta from control mice and mice fed with HFD in the presence and absence of low levan β-[2,6]-glycosidic linkages treatment.
as §1

[11] = Liver function (ALT, ALP) in HFD obese mice; type: in vivo; conditions: mice with obesity; levan 250 mg/Kg gavage 4 weeks
[12] = test system: inflammation, oxidative stress and ER stress markers in distal colon; assay: mRNA markers in distal colon of HFD obese mice; type: in vivo
Excerpt: FIG. 6L is a heat map showing all the markers in distal colon from control mice and mice fed with HFD in the presence and absence of low levan β-[2,6]-glycosidic linkages treatment.
as §1

[13] = mice with obesity, levan 250 mg/Kg gavage 4 weeks
[14] = obese mice, endothelium dependent relaxation after precontraction to phenylephrine
[15] = HFD mice, levan 250 mg/Kg gavage 4 weeks, vs untreated HFD mice
[16] = listed as low MW levan β-[2,6]-glycosidic linkages
[17] = listed as low molecular levan having β-[2,6]-glycosidic linkages

## levan [low MW levan]
[1]
  endoplasmic reticulum stress: significantly reduced
  inflammation: significantly reduced
  oxidative stress: significantly reduced
[2]
  blood pressure: reduced
Thoracic aorta; [13]
  endothelial function of conductance artery (thoracic aortic): preserve
  vascular function in aorta: improved
Thoracic aorta; [14]
  vascular response to acetylcholine (Ach), aorta: improved
[3]
  ER stress: reduced
  inflammation: reduced
  oxidative stress: reduced
[4]; [13]
  endothelial function of resistance arteries (mesenteric artery): preserve
  vascular function in mesenteric arteries: improved
[4]; [14]
  vascular response to acetylcholine (Ach), MRA: improved
[5]; HFD mice with obesity, levan 250 mg/Kg gavage 4 weeks
  lipid profile: improved
[5]; HFD mice, levan 250 mg/Kg gavage 4 weeks, EchoMRI, vs untreated HFD mice
  fat mass %: significantly decreased
[5]; HFD mice, levan 250 mg/Kg gavage 4 weeks, EchoMRI, vs untreated HFD mice, listed as low MW levan β-[2,6]-glycosidic linkages
  lean mass %: increased
[5]; HFD mice, levan 250 mg/Kg gavage 4 weeks, EchoMRI, vs untreated HFD mice, listed as low molecular weight levan having β-[2,6]-glycosidic linkages
  lean mass %: significantly increased
[5]; [15]
  HDL: significantly decreased
  LDL: significantly decreased
  blood glucose: significantly decreased
  total cholesterol: significantly decreased
  triglyceride: significantly decreased
[5]; vs untreated HFD mice, listed as Low MW levan β-[2,6]-glycosidic linkages
  body weight: reduced
[5]; vs untreated HFD mice, listed as low molecular weight levan having β-[2,6]-glycosidic linkages
  body weight: decreased
[6]
  damage to the liver function (ALT, ALP): did not cause damage
  toxicity of dose and treatment period: not toxic
[7]; [16]
  endoplasmic reticulum stress: decreased
  inflammation: decreased
  oxidative stress: decreased
[7]; listed as low levan
  endoplasmic reticulum stress: significantly reduced
  inflammation: significantly reduced
  oxidative stress: significantly reduced
aorta; hypertensive mice, aorta
  vascular relaxation: improving
aorta; hypertensive mice, aorta contraction to PE, TXA, Ang II
  exacerbated vascular contraction: reducing
aorta; mice with hypertension (angiotensin II)
  vascular function in the aorta: improved
[8]
  ER stress: reduced
  inflammation: reduced
  oxidative stress: reduced
[9]; [16]
  ER stress: decreased
  inflammation: decreased
  oxidative stress: decreased
[9]; [17]
  ER stress: reduced
  inflammation: reduced
  oxidative stress: reduced
[10]
  endoplasmic reticulum stress: significantly reduced
  inflammation: significantly reduced
  oxidative stress: significantly reduced
[10]; [16]
  endoplasmic reticulum stress: decreased
  inflammation: decreased
  oxidative stress: decreased
[11]
  liver function (ALT, ALP): improved
  toxicity of the dose used: not toxic
[12]; [16]
  ER stress: decreased
  inflammation: decreased
  oxidative stress: decreased
[12]; [17]
  ER stress: reduced
  inflammation: reduced
  oxidative stress: reduced
